These results are taken from patent US11629171B2, “Beta-hairpin peptidomimetics” (POLYPHOR AG, priority 2017, dated 2023).

≈ marks a conversion by molar mass, not a printed value. Where a SMILES comes first, the peptide text is derived from it. Bridges are numbered along the chain shown (N, C = ends). Roman numbers before positions name the chains, in order. [ ]: non-standard residue; d: D form. The star is where a group is joined. Thr(ol) = C[C@@H](O)[C@H](N)CO; Tle = CC(C)(C)[C@H](N)C(=O)O; Hiv = CC(C)[C@H](O)C(=O)O; dDab = NCC[C@@H](N)C(=O)O; Dab = NCC[C@H](N)C(=O)O; Dap = NC[C@H](N)C(=O)O; NHCH2CH2OH = OCCN*

Assay type in all cases: cell-based
Data set [1] relates to human red blood cells (hRBC). As to the kind of experiment: Hemolysis. Conditions: red cells of human, 1 h, 200. In short, it runs like this:
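Percent lysis of human red cells was derived from OD540 of the supernatant, referenced to 2% Triton X-100, after a 1 h, 37° C incubation of 20% (v/v) cells with 200 μg/mL peptide.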

In data set [2] the test system is Escherichia coli ATCC 25922. The conditions noted are these: ATCC 25922. The gist of the method:
(§1)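 Standard CLSI microdilution testing: bacterial suspensions standardized against 0.5 McFarland to about 10^6 CFU/mL in MH-II broth meet serially halved peptide concentrations in broth containing 0.002% polysorbate 80; incubation lasts 18-20 h at 35° C before the MIC is scored.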

The subject of data set [3] is Enterobacter cloacae 848840. Conditions: 848840. The gist of the method:
as §1

A further data set concerns Escherichia coli 926415. The conditions noted are these: 926415. The gist of the method:
as §1

The test system of data set [4] is Acinetobacter baumannii DSM 30008. Conditions: DSM 30008. The gist of the method: as §1
Data set [5] concerns Klebsiella pneumoniae 968733. Conditions: 968733. In short, it runs like this:
as §1

Data set [6] concerns Pseudomonas aeruginosa ATCC 27853. Conditions: ATCC 27853. In short, it runs like this:
as §1

Data set [7] concerns Klebsiella pneumoniae SSI #3010. Conditions: SSI #3010. The gist of the method:
as §1

The test system of data set [8] is Acinetobacter baumannii 872842. The conditions noted are these: 872842. The gist of the method: as §1

For orientation: MIC means the lowest concentration that inhibits growth of the organism. Higher therefore signals a less susceptible organism. As to `CC(=O)N[C@H](C(=O)N[C@H]1CSSC[C@@H](C(=O)N[C@@H](CO)C(N)=O)NC(=O)[C@H](C(C)(C)C)NC(=O)[C@H](CCC(=O)O)NC(=O)[C@H](Cc2c[nH]c3ccccc23)NC(=O)[C@H](CO)NC(=O)[C@@H](CCN)NC(=O)[C@H](CCC(=O)N[C@@H](CCN)C(=O)N[C@H](C(=O)N[C@@H](CN)C(=O)N[C@H]2CCNC(=O)[C@H]([C@@H](C)O)NC(=O)[C@H](CCN)NC(=O)[C@H](CCN)NC(=O)[C@H](CC(C)C)NC(=O)[C@@H](CC(C)C)NC(=O)[C@H](CCN)NC2=O)[C@@H](C)O)NC(=O)[C@H](CCN)NC(=O)[C@H](Cc2ccc(O)cc2)NC1=O)C(C)C` [Ex. 154] (I: Ac-VCY[Dab]E[dDab]SWE[Tle]CS-NH2 / II: [Dab]T[Dap][Dab][Dab][dL]L[Dab][Dab]T; disulfide I:2-I:11; amide I:5-II:N; lactam II:4-II:C), the “Hemolysis at 200 μg/mL” value in data set [1] is given as below 1%. The minimum inhibitory concentration (MIC) was 0.03125 µg/mL (≈ 0.0127 µM) in data set [2]; 0.125 µg/mL (≈ 0.0509 µM) in data set [3]; 0.125 µg/mL (≈ 0.0509 µM) against Escherichia coli 926415; 0.01562 µg/mL (≈ 0.00636 µM) in [4]; 0.25 µg/mL (≈ 0.102 µM) in data set [5]; 0.125 µg/mL (≈ 0.0509 µM) in [6]. The minimal inhibitory concentration (MIC) in data set [7] and in data set [8] was 0.0625 µg/mL (≈ 0.0255 µM) each time.
Regarding `CC(C)C[C@@H]1NC(=O)[C@@H](CC(C)C)NC(=O)[C@H](CCN)NC(=O)[C@@H](NC(=O)[C@H](CCN)NC(=O)[C@H](CO)NC(=O)[C@H](CCN)NC(=O)CC[C@@H]2NC(=O)[C@H](CN)NC(=O)[C@H](Cc3ccc(O)cc3)NC(=O)[C@@H](NC(=O)[C@@H](O)C(C)C)CSSC[C@@H](C(=O)NCCO)NC(=O)[C@H](C(C)(C)C)NC(=O)[C@H](CO)NC(=O)[C@H](Cc3c[nH]c4ccccc34)NC(=O)[C@H]([C@@H](C)O)NC(=O)[C@@H](CCN)NC2=O)CCNC(=O)[C@H]([C@@H](C)O)NC(=O)[C@H](CCN)NC(=O)[C@H](CCN)NC1=O` [Ex. 59] (I: H-[Hiv]CY[Dap]E[dDab]TWS[Tle]C-NHCH2CH2OH / II: [Dab]S[Dab][Dab][Dab][dL]L[Dab][Dab]T; disulfide I:2-I:11; amide I:5-II:N; lactam II:4-II:C), the “Hemolysis at 200 μg/mL” value in data set [1] was below 1%. Besides, the MIC is 0.125 µg/mL (≈ 0.0537 µM) in [2]; 1 µg/mL (≈ 0.429 µM) in data set [3]; 0.125 µg/mL (≈ 0.0537 µM) with Escherichia coli 926415; 0.125 µg/mL (≈ 0.0537 µM) in [4]; 0.25 µg/mL (≈ 0.107 µM) in data set [5]; 0.125 µg/mL (≈ 0.0537 µM) in [6]. The minimum inhibitory concentration (MIC) in data set [7] came out at 0.125 µg/mL (≈ 0.0537 µM); in data set [8], 0.25 µg/mL (≈ 0.107 µM).
For `CC(C)C[C@@H]1NC(=O)[C@@H](CC(C)C)NC(=O)[C@H](CCN)NC(=O)[C@@H](NC(=O)[C@H](CN)NC(=O)[C@@H](NC(=O)[C@H](CCN)NC(=O)CC[C@@H]2NC(=O)[C@H](CN)NC(=O)[C@H](Cc3ccc(O)cc3)NC(=O)[C@@H](NC(=O)[C@@H](O)C(C)C)CSSC[C@@H](C(=O)N[C@H](CO)[C@@H](C)O)NC(=O)[C@H](C(C)(C)C)NC(=O)[C@H](CO)NC(=O)[C@H](Cc3c[nH]c4ccccc34)NC(=O)[C@H](CCN)NC(=O)[C@@H](CCN)NC2=O)[C@@H](C)O)CCNC(=O)[C@H]([C@@H](C)O)NC(=O)[C@H](CCN)NC(=O)[C@H](CCN)NC1=O` [Ex. 111] (I: H-[Hiv]CY[Dap]E[dDab][Dab]WS[Tle]C[Thr(ol)] / II: [Dab]T[Dap][Dab][Dab][dL]L[Dab][Dab]T; disulfide I:2-I:11; amide I:5-II:N; lactam II:4-II:C), in [1], the “Hemolysis at 200 μg/mL” value was below 1%. Further, the minimum inhibitory concentration (MIC) in [2] is 0.125 µg/mL (≈ 0.0527 µM); in data set [3], 0.125 µg/mL (≈ 0.0527 µM); in the data set on Escherichia coli 926415, 0.0625 µg/mL (≈ 0.0264 µM); in [4], 0.03125 µg/mL (≈ 0.0132 µM); in [5], 0.125 µg/mL (≈ 0.0527 µM); in [6], 0.25 µg/mL (≈ 0.105 µM). Further, the results for the minimal inhibitory concentration (MIC) in data set [7] and in data set [8] were 0.125 µg/mL (≈ 0.0527 µM) and 0.0625 µg/mL (≈ 0.0264 µM), respectively.
